Results as given in the supplement of paper PMC4932681.
Counter-ions that a name gives are not always drawn.

How the values were obtained:
BT-474 Tam1 [1] = assay: drug sensitivity score (DSS) (DSS (dimensionless)); higher = more sensitive; extreme values may be limits of the assay; details: 4-OH-tamoxifen in medium 1 µM; 72 h
Protocol: (§1)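 FIMM FO2B library drugs were tested at 5 concentrations (10,000-fold range) for 72 h, with CellTiter-Glo viability normalised to DMSO and benzethonium chloride controls. The Drug Sensitivity Score (DSS) is computed from the fitted logistic dose-response curve (area-based; 0 = inactive). Resistant lines and the 'in 1µM tamoxifen' arms were tested in 1 µM 4-OH-tamoxifen.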

ZR-75-1 Tam1 [2] = assay: as above; details: 4-OH-tamoxifen in medium 1 µM; 72 h
Protocol: as §1

T-47D Tam1 [3] = assay: as above; details: 4-OH-tamoxifen in medium 1 µM; 72 h
Protocol: as §1

BT-474 Tam2 [4] = assay: as above; details: 4-OH-tamoxifen in medium 1 µM; 72 h
Protocol: as §1

T-47D Tam2 = assay: as above; details: 4-OH-tamoxifen in medium 1 µM; 72 h
Protocol: as §1

BT-474 [5] = assay: as above; details: 72 h
Protocol: as §1

ZR-75-1 [6] = assay: as above; details: 72 h
Protocol: as §1

ZR-75-1 Tam2 [7] = assay: as above; details: 4-OH-tamoxifen in medium 1 µM; 72 h
Protocol: as §1

T-47D [8] = assay: as above; details: 72 h
Protocol: as §1

MCF-7 Tam1 = assay: as above; details: 4-OH-tamoxifen in medium 1 µM; 72 h
Protocol: as §1

MCF-7 [9] = assay: as above; details: 72 h
Protocol: as §1

BT-474 Tam1 [10] = assay: relative IC50 (midpoint of fitted logistic curve, plateau may be below 50% inhibition; CellTiter-Glo viability); higher = less potent; details: 4-OH-tamoxifen in medium 1 µM; 72 h
Protocol: (§2)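 FIMM FO2B library drugs were plated at 5 concentrations spanning a 10,000-fold range in 384-well plates. Cells were incubated for 72 h at 37 °C and viability was read by CellTiter-Glo, normalised to DMSO (0% inhibition) and 100 µM benzethonium chloride (100% inhibition). IC50 values come from logistic dose-response fits (Breeze pipeline). Tamoxifen-resistant lines and the 'in 1µM tamoxifen' parental arms were tested in medium with 1 µM 4-OH-tamoxifen.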

ZR-75-1 Tam1 [11] = assay: as above; details: 4-OH-tamoxifen in medium 1 µM; 72 h
Protocol: as §2

BT-474 [12] = assay: as above; details: 72 h
Protocol: as §2

ZR-75-1 [13] = assay: as above; details: 72 h
Protocol: as §2

ZR-75-1 Tam2 [14] = assay: as above; details: 4-OH-tamoxifen in medium 1 µM; 72 h
Protocol: as §2

T-47D [15] = assay: as above; details: 72 h
Protocol: as §2

MCF-7 [16] = assay: as above; details: 72 h
Protocol: as §2

BT-474 Tam2 [17] = assay: as above; details: 4-OH-tamoxifen in medium 1 µM; 72 h
Protocol: as §2

T-47D Tam1 [18] = assay: as above; details: 4-OH-tamoxifen in medium 1 µM; 72 h
Protocol: as §2

Structure (SMILES)	relative IC50 (BT-474 Tam1 [10]) [nM]	relative IC50 (BT-474 [12]; 4-OH-tamoxifen in medium 0 µM) [nM]	relative IC50 (T-47D [15]; 4-OH-tamoxifen in medium 0 µM) [nM]	relative IC50 (T-47D [15]; 4-OH-tamoxifen in medium 1 µM) [nM]	relative IC50 (MCF-7 [16]; 4-OH-tamoxifen in medium 1 µM) [nM]	relative IC50 (BT-474 Tam2 [17]) [nM]	relative IC50 (BT-474 [12]; 4-OH-tamoxifen in medium 1 µM) [nM]	relative IC50 (MCF-7 [16]; 4-OH-tamoxifen in medium 0 µM) [nM]	relative IC50 (T-47D Tam1 [18]) [nM]	drug sensitivity score (BT-474 Tam1 [1])	drug sensitivity score (ZR-75-1 Tam1 [2])	drug sensitivity score (T-47D Tam1 [3])	drug sensitivity score (BT-474 Tam2 [4])	drug sensitivity score (T-47D Tam2)	drug sensitivity score (BT-474 [5]; 4-OH-tamoxifen in medium 0 µM)	drug sensitivity score (BT-474 [5]; 4-OH-tamoxifen in medium 1 µM)	drug sensitivity score (ZR-75-1 [6]; 4-OH-tamoxifen in medium 0 µM)	drug sensitivity score (ZR-75-1 [6]; 4-OH-tamoxifen in medium 1 µM)	drug sensitivity score (ZR-75-1 Tam2 [7])	drug sensitivity score (T-47D [8]; 4-OH-tamoxifen in medium 0 µM)	drug sensitivity score (T-47D [8]; 4-OH-tamoxifen in medium 1 µM)	drug sensitivity score (MCF-7 Tam1)	drug sensitivity score (MCF-7 [9]; 4-OH-tamoxifen in medium 0 µM)	drug sensitivity score (MCF-7 [9]; 4-OH-tamoxifen in medium 1 µM)	relative IC50 (ZR-75-1 Tam1 [11]) [nM]	relative IC50 (ZR-75-1 [13]; 4-OH-tamoxifen in medium 0 µM) [nM]	relative IC50 (ZR-75-1 Tam2 [14]) [nM]	relative IC50 (ZR-75-1 [13]; 4-OH-tamoxifen in medium 1 µM) [nM]
COc1ccc(C2=N[C@@H](c3ccc(Cl)cc3)[C@@H](c3ccc(Cl)cc3)N2C(=O)N2CCNC(=O)C2)c(OC(C)C)c1 [Nutlin-3]	3210	> 10000	> 10000	> 10000	2080	–	–	–	–	1.52	2.29	0.605	2.34	0.429	0	0.0005	1.96	2.65	4.17	0	0	0.214	2.64	3.36	1900	2790	1350	–
O=C(c1ccc(OCCN2CCCCC2)cc1)c1c(-c2ccc(O)cc2)sc2cc(O)ccc12 [Raloxifene  HCl]	4000	–	–	> 10000	2650	4220	3740	553	–	1.74	0	0.0352	1.14	1.8	0.75	2.42	0.0043	0.0503	0	0.0005	0	0.681	3.69	1.88	> 10000	–	> 10000	–
CNC(=O)c1cc(Oc2ccc(NC(=O)Nc3ccc(Cl)c(C(F)(F)F)c3)c(F)c2)ccn1 [Regorafenib (BAY 73-4506)]	3610	3830	–	–	3340	2430	3940	3540	370	4.57	0.695	9.09	5.3	0.22	1.48	3.22	0.232	0.299	2.33	1.1	0.365	0	2.49	1.46	–	–	1940	–
CC[C@H](CO)Nc1nc(NCc2ccccc2)c2ncn(C(C)C)c2n1 [Seliciclib (Roscovitine)]	> 10000	> 10000	> 10000	> 10000	–	> 10000	> 10000	–	–	0	0	4	0	0.682	0	0	0	0	0	0	0	0.0488	0.816	0.217	> 10000	> 10000	> 10000	> 10000
CO[C@H]1C[C@@H]2CC[C@@H](C)[C@@](O)(O2)C(=O)C(=O)N2CCCC[C@H]2C(=O)O[C@H]([C@H](C)C[C@@H]2CC[C@@H](OC(=O)C(C)(CO)CO)[C@H](OC)C2)CC(=O)[C@H](C)/C=C(\C)[C@@H](O)[C@@H](OC)C(=O)[C@H](C)C[C@H](C)/C=C/C=C/C=C/1C [Temsirolimus]	–	–	–	–	2	–	> 100	0.493	2.04	1.35	4.48	5.45	0.262	2.09	0.668	0	8.12	4.72	8.51	3.79	0.468	0.189	10.3	6.12	2.67	0.917	1.08	–

Second part, led by results:

relative IC50 (BT-474 Tam1 [10]) [nM]	relative IC50 (BT-474 [12]; 4-OH-tamoxifen in medium 0 µM) [nM]	relative IC50 (T-47D [15]; 4-OH-tamoxifen in medium 0 µM) [nM]	relative IC50 (T-47D [15]; 4-OH-tamoxifen in medium 1 µM) [nM]	relative IC50 (MCF-7 [16]; 4-OH-tamoxifen in medium 1 µM) [nM]	relative IC50 (BT-474 Tam2 [17]) [nM]	relative IC50 (BT-474 [12]; 4-OH-tamoxifen in medium 1 µM) [nM]	relative IC50 (MCF-7 [16]; 4-OH-tamoxifen in medium 0 µM) [nM]	relative IC50 (T-47D Tam1 [18]) [nM]	Structure (SMILES)	drug sensitivity score (BT-474 Tam1 [1])	drug sensitivity score (ZR-75-1 Tam1 [2])	drug sensitivity score (T-47D Tam1 [3])	drug sensitivity score (BT-474 Tam2 [4])	drug sensitivity score (T-47D Tam2)	drug sensitivity score (BT-474 [5]; 4-OH-tamoxifen in medium 0 µM)	drug sensitivity score (BT-474 [5]; 4-OH-tamoxifen in medium 1 µM)	drug sensitivity score (ZR-75-1 [6]; 4-OH-tamoxifen in medium 0 µM)	drug sensitivity score (ZR-75-1 [6]; 4-OH-tamoxifen in medium 1 µM)	drug sensitivity score (ZR-75-1 Tam2 [7])	drug sensitivity score (T-47D [8]; 4-OH-tamoxifen in medium 0 µM)	drug sensitivity score (T-47D [8]; 4-OH-tamoxifen in medium 1 µM)	drug sensitivity score (MCF-7 Tam1)	drug sensitivity score (MCF-7 [9]; 4-OH-tamoxifen in medium 0 µM)	drug sensitivity score (MCF-7 [9]; 4-OH-tamoxifen in medium 1 µM)	relative IC50 (ZR-75-1 Tam1 [11]) [nM]	relative IC50 (ZR-75-1 [13]; 4-OH-tamoxifen in medium 0 µM) [nM]	relative IC50 (ZR-75-1 Tam2 [14]) [nM]	relative IC50 (ZR-75-1 [13]; 4-OH-tamoxifen in medium 1 µM) [nM]
–	–	5.63	–	3.28	–	> 100	1.03	2.06	CO[C@H]1C[C@@H]2CC[C@@H](C)[C@@](O)(O2)C(=O)C(=O)N2CCCC[C@H]2C(=O)O[C@H]([C@H](C)C[C@@H]2CC[C@@H](OP(C)(C)=O)[C@H](OC)C2)CC(=O)[C@H](C)/C=C(\C)[C@@H](O)[C@@H](OC)C(=O)[C@H](C)C[C@H](C)/C=C/C=C/C=C/1C [Ridaforolimus]	2	5.15	5.75	2.86	2.97	6.16	0	8.67	4.9	10.1	4.69	1.51	0.718	12.2	5.81	3.27	1.23	1	1.76
–	> 10000	> 10000	> 10000	–	> 10000	–	–	975	Cn1cnc2c(F)c(Nc3ccc(Br)cc3Cl)c(C(=O)NOCCO)cc21 [Selumetinib  (AZD6244)]	0.393	0	8.55	0	0.0086	0	2.57	0	0	0	0	0	0.168	0.0626	1.86	> 10000	> 10000	> 10000	> 10000
